Laboratory results published in article PMC9329436, “Optimization of the 4-anilinoquin(az)oline scaffold as epidermal growth factor receptor (EGFR) inhibitors for chordoma utilizing a toxicology profiling assay platform” (Scientific Reports, 2022).
Like-named read-outs stand apart in the source and are kept apart here.

Legend:
Assay type in all cases: biochemical
[1] = target: T1, 320 wild-type protein kinases (Homo sapiens, UniProt Q8NG66); conditions: singlicate
T1 sequence (Q8NG66 1-645): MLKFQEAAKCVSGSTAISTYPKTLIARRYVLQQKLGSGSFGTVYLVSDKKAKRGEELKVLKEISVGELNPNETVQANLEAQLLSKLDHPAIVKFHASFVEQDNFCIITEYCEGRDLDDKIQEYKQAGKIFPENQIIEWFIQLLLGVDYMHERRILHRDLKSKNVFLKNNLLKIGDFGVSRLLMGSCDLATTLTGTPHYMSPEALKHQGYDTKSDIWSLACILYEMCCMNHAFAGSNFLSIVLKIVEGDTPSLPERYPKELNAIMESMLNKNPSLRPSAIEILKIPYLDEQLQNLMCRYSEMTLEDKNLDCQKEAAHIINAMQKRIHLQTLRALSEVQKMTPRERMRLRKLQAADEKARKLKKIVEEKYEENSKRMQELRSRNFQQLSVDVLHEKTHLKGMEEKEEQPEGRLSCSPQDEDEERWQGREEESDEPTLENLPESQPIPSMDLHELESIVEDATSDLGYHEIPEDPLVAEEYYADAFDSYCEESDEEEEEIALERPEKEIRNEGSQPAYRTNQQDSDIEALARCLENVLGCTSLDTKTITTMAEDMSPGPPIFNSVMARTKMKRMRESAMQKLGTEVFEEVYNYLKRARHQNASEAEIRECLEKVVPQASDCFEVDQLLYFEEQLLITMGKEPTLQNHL
From the text: (§1) Table S4. Profiling of two compounds at two concentrations against 320 wild-type protein kinases; singlicate measurement; Residual activities (% of control).

[2] = target: T2, 320 wild-type protein kinases (Homo sapiens, UniProt Q08881); conditions: ITK, singlicate
T2 sequence (Q08881 1-620): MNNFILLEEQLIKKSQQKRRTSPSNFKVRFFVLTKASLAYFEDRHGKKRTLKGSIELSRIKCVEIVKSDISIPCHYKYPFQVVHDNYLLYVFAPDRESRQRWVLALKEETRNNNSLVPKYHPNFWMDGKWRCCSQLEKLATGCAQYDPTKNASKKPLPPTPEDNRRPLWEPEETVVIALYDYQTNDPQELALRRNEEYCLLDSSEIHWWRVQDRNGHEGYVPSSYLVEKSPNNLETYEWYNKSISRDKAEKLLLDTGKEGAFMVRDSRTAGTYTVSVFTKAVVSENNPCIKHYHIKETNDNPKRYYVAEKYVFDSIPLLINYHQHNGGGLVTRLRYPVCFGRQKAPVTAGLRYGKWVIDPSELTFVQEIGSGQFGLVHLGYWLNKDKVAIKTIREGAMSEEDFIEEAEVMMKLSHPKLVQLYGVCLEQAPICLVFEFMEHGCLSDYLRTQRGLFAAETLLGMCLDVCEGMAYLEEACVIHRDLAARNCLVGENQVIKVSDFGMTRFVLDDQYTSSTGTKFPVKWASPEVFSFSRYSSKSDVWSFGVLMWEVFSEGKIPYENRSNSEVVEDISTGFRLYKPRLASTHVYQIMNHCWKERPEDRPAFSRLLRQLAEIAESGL
From the text: as §1

[3] = target: 320 wild-type protein kinases (Homo sapiens, UniProt P05129); conditions: PKC-gamma, singlicate
From the text: as §1

[4] = target: 320 wild-type protein kinases (Homo sapiens, UniProt P08581); conditions: MET, singlicate
From the text: as §1

[5] = target: 320 wild-type protein kinases (Homo sapiens, UniProt Q8N5S9); conditions: singlicate
From the text: as §1

[6] = target: 320 wild-type protein kinases (Homo sapiens, UniProt P21802); conditions: singlicate
From the text: as §1

[7] = target: 320 wild-type protein kinases (Homo sapiens, UniProt P50613); conditions: singlicate
From the text: as §1

[8] = target: 320 wild-type protein kinases (Homo sapiens, UniProt P15056); conditions: B-RAF, singlicate
From the text: as §1

[9] = target: 320 wild-type protein kinases (Homo sapiens, UniProt P07333); conditions: CSF1-R, singlicate
From the text: as §1

[10] = target: 320 wild-type protein kinases (Homo sapiens, UniProt Q13705); conditions: ACV-R2B, singlicate
From the text: as §1

[11] = target: T3, 320 wild-type protein kinases (Homo sapiens, UniProt Q99986); conditions: kinase VRK1, singlicate
T3 sequence (Q99986 1-396): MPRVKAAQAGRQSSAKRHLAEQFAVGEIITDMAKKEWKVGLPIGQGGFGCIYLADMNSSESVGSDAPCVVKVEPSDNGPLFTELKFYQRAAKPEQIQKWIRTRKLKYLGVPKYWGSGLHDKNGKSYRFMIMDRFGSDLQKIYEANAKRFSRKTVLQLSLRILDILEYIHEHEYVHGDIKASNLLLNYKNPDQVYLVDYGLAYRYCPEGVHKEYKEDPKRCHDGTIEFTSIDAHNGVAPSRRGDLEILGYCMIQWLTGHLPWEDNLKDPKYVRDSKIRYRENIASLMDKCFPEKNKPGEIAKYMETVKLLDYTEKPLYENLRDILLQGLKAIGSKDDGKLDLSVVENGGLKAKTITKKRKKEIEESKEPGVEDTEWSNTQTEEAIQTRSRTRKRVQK
From the text: as §1

[12] = target: 320 wild-type protein kinases (Homo sapiens, UniProt P08069); conditions: IGF1-R, singlicate
From the text: as §1

[13] = target: 320 wild-type protein kinases (Homo sapiens, UniProt P32298); conditions: singlicate
From the text: as §1

Sequence of 320 wild-type protein kinases (Homo sapiens, UniProt P50613) (P50613 whole entry): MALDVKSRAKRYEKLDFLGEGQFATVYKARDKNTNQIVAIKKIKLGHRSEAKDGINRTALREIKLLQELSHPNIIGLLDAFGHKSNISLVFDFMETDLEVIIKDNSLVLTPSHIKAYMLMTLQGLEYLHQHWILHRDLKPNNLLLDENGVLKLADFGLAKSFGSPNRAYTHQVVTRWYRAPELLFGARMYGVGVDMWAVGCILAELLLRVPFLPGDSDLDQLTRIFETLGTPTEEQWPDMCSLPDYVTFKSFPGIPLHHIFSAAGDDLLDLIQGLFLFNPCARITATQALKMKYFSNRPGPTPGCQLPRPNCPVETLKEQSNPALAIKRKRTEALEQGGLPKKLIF
Sequence of 320 wild-type protein kinases (Homo sapiens, UniProt P32298) (P32298 whole entry): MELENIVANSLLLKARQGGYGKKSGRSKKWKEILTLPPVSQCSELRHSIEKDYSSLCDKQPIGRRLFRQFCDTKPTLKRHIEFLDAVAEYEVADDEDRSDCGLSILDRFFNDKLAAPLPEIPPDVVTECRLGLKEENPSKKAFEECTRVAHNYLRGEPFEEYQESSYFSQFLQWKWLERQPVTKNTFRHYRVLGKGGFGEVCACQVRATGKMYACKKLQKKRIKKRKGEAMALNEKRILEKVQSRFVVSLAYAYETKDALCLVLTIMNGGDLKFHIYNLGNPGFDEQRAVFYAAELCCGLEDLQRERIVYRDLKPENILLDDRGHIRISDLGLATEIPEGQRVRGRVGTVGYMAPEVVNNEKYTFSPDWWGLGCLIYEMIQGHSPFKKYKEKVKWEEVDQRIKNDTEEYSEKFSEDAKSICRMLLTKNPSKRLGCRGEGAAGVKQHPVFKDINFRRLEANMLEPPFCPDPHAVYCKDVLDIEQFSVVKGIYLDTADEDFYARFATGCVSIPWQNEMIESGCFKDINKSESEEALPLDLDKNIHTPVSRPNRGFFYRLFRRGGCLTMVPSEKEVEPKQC
Sequence of 320 wild-type protein kinases (Homo sapiens, UniProt P07333) (P07333 20-972): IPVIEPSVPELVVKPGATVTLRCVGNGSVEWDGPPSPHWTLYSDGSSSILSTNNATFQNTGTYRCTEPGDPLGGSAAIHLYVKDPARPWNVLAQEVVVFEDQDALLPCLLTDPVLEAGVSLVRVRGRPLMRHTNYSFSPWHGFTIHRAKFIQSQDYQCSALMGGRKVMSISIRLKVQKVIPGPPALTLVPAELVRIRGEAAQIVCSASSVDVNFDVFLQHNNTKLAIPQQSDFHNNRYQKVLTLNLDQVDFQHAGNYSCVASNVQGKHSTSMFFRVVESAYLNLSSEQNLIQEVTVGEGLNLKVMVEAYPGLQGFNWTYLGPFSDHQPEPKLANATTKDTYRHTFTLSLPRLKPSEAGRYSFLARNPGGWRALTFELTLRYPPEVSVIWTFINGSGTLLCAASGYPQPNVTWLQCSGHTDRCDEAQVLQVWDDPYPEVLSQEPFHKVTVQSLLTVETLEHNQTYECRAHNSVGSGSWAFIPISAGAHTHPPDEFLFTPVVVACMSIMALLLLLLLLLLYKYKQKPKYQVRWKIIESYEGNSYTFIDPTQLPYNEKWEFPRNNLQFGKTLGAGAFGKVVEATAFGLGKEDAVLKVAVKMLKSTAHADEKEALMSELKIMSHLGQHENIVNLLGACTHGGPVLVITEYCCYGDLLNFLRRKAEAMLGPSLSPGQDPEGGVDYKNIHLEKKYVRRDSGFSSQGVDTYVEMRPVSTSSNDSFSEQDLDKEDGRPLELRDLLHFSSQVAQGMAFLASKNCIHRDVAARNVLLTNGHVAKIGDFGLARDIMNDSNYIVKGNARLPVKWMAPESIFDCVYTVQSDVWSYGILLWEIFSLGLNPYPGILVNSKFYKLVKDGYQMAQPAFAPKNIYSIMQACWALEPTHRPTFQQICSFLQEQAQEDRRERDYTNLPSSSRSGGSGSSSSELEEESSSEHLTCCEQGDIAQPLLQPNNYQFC
Sequence of 320 wild-type protein kinases (Homo sapiens, UniProt P15056) (P15056 whole entry): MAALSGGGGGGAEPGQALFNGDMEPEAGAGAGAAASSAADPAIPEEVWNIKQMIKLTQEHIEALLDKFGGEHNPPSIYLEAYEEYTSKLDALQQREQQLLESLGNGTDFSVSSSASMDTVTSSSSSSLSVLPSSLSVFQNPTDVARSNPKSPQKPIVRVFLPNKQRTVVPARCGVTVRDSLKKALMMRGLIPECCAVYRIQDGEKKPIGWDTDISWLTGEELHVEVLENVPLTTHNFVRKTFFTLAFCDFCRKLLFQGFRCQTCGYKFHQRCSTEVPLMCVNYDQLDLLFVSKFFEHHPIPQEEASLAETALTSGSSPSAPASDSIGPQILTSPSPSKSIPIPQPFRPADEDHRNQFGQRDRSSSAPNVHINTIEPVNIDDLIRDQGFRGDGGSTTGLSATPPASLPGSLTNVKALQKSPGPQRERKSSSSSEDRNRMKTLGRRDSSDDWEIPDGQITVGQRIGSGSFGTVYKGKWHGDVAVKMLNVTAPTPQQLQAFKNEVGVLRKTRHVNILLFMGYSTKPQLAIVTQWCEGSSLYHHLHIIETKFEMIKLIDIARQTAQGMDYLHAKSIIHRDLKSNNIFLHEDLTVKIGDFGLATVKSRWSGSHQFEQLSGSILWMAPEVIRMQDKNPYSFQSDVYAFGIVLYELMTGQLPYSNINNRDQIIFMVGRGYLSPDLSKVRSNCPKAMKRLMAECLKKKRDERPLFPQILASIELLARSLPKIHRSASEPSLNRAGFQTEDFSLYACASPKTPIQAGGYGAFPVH
Sequence of 320 wild-type protein kinases (Homo sapiens, UniProt Q13705) (Q13705 19-512): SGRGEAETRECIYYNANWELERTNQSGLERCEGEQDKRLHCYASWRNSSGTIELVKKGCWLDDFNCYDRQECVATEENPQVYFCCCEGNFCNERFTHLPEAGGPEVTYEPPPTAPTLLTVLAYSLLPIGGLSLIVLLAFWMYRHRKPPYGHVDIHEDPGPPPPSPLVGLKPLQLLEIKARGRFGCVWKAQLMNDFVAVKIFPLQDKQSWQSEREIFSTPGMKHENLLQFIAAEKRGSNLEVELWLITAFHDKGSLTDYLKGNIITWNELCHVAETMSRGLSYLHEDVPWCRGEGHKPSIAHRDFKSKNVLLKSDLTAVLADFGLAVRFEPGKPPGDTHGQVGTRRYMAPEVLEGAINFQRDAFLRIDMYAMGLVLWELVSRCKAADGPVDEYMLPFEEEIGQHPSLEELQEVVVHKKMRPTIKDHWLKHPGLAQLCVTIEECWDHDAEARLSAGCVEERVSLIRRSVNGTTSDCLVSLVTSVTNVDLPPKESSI
Sequence of 320 wild-type protein kinases (Homo sapiens, UniProt P21802) (P21802 22-821): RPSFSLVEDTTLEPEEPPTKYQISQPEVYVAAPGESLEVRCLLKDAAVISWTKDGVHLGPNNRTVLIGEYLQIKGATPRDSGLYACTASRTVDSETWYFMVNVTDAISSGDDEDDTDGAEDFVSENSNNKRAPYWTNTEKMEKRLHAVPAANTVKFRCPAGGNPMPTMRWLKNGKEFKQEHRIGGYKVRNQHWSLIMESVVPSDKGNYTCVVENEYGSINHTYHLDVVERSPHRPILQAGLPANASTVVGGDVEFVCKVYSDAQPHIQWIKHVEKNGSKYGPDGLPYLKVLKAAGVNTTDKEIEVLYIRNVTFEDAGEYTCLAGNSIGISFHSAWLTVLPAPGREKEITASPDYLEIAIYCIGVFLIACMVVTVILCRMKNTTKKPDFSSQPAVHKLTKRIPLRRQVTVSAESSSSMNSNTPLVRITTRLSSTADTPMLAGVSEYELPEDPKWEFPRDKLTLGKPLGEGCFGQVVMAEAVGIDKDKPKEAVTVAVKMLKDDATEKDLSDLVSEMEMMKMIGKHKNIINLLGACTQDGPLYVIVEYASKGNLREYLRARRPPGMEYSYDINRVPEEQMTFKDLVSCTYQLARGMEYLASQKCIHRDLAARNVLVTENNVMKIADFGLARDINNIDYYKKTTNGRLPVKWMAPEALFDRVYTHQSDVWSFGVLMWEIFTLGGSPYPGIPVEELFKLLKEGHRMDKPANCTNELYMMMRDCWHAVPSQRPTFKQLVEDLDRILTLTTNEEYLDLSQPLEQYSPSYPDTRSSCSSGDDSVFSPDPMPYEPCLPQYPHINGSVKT

C#Cc1cc(Nc2ncnc3cc(OC)c(OC)cc23)ccc1Cl [Compound 45]
Residual activity ([1]; NEK11, 1.0E-06 M): 103 % of control
Residual activity ([1]; NEK11, 1.0E-07 M): 106 % of control
Residual activity ([2]; 1.0E-06 M): 99 % of control
Residual activity ([2]; 1.0E-07 M): 88 % of control
Residual activity ([3]; 1.0E-06 M): 88 % of control
Residual activity ([3]; 1.0E-07 M): 87 % of control
Residual activity ([4]; 1.0E-06 M): 70 % of control
Residual activity ([4]; 1.0E-07 M): 99 % of control
Residual activity ([5]; CAMKK1, 1.0E-06 M): 110 % of control
Residual activity ([5]; CAMKK1, 1.0E-07 M): 91 % of control
Residual activity ([6]; FGF-R2, 1.0E-06 M): 69 % of control
Residual activity ([6]; FGF-R2, 1.0E-07 M): 87 % of control
Residual activity ([7]; CDK7/CycH/MAT1, 1.0E-06 M): 79 % of control
Residual activity ([7]; CDK7/CycH/MAT1, 1.0E-07 M): 74 % of control
Residual activity ([8]; 1.0E-06 M): 108 % of control
Residual activity ([8]; 1.0E-07 M): 112 % of control
Residual activity ([9]; 1.0E-06 M): 108 % of control
Residual activity ([9]; 1.0E-07 M): 127 % of control
Residual activity ([10]; 1.0E-06 M): 85 % of control
Residual activity ([10]; 1.0E-07 M): 83 % of control
Residual activity, VRK1 ([11]; assay conc. 1.0E-06 M): 93 % of control
Residual activity, VRK1 ([11]; assay conc. 1.0E-07 M): 104 % of control
Residual activity ([12]; 1.0E-06 M): 101 % of control
Residual activity ([12]; 1.0E-07 M): 122 % of control
Residual activity ([13]; GRK4, 1.0E-06 M): 126 % of control
Residual activity ([13]; GRK4, 1.0E-07 M): 121 % of control

C#Cc1cc(Nc2ncnc3cc(I)ccc23)ccc1Cl [Compound 41]
Residual activity ([1]; NEK11, 1.0E-06 M): 95 % of control
Residual activity ([1]; NEK11, 1.0E-07 M): 82 % of control
Residual activity ([2]; 1.0E-06 M): 107 % of control
Residual activity ([2]; 1.0E-07 M): 99 % of control
Residual activity ([3]; 1.0E-06 M): 89 % of control
Residual activity ([3]; 1.0E-07 M): 99 % of control
Residual activity ([4]; 1.0E-06 M): 89 % of control
Residual activity ([4]; 1.0E-07 M): 93 % of control
Residual activity ([5]; CAMKK1, 1.0E-06 M): 84 % of control
Residual activity ([5]; CAMKK1, 1.0E-07 M): 87 % of control
Residual activity ([6]; FGF-R2, 1.0E-06 M): 85 % of control
Residual activity ([6]; FGF-R2, 1.0E-07 M): 88 % of control
Residual activity ([7]; CDK7/CycH/MAT1, 1.0E-06 M): 81 % of control
Residual activity ([7]; CDK7/CycH/MAT1, 1.0E-07 M): 93 % of control
Residual activity ([8]; 1.0E-06 M): 115 % of control
Residual activity ([8]; 1.0E-07 M): 145 % of control
Residual activity ([9]; 1.0E-06 M): 123 % of control
Residual activity ([9]; 1.0E-07 M): 130 % of control
Residual activity ([10]; 1.0E-06 M): 84 % of control
Residual activity ([10]; 1.0E-07 M): 91 % of control
Residual activity, VRK1 ([11]; assay conc. 1.0E-06 M): 98 % of control
Residual activity, VRK1 ([11]; assay conc. 1.0E-07 M): 109 % of control
Residual activity ([12]; 1.0E-06 M): 103 % of control
Residual activity ([12]; 1.0E-07 M): 109 % of control
Residual activity ([13]; GRK4, 1.0E-06 M): 113 % of control
Residual activity ([13]; GRK4, 1.0E-07 M): 128 % of control
